{"source": "patent US5279956A", "about": "“Activated protein C polypeptides and anti-peptide antibodies, diagnostic methods and systems for inhibiting activated protein C” (The Scripps Research Institute, priority 1991, dated 1994)", "biological_target": "T1, APC (Homo sapiens, UniProt P04070)", "T1 construct": "begins at amino acid residue position 158 and ends at 419; The light chain is 155 amino acid residues in length; tissue Factor IX concentrate from Immuno AG, Vienna; thrombin from Enzyme Research Laboratories", "T1 sequence (P04070 212-461)": "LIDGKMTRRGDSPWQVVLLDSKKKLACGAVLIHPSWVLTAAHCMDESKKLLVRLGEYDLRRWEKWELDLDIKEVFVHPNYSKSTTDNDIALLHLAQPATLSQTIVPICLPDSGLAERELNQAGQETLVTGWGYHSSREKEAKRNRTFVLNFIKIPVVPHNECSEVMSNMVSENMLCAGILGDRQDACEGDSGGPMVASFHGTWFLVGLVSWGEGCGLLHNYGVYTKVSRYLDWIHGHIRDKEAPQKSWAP", "T1 sequence (P04070 43-197)": "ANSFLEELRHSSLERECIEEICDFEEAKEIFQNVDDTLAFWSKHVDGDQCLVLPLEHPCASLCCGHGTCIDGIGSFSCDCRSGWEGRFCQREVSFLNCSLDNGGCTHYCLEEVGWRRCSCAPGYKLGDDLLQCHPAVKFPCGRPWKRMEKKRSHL", "experiment": "APC-catalyzed inactivation of Factor Va, read out by Factor Va-prothrombinase assay", "assay_type": "biochemical", "description": "FIG. 5 illustrates the APC-catalyzed inactivation of Factor Va in the presence of peptide-(390-404) and phospholipids. The assay was carried out in TBS-BSA and 2.5 mM CaCl2 at pH 7.4 as described in Example 5a5) using 0.25 nM APC, 10.0 nM Va, 50 μM phospholipid vesicles and 0 to 50 μM peptide-(390-404), that had been preincubated for 20 minutes at 22° C. with Factor Va. Factor Va inactivation by APC was indirectly determined using the cofactor activity of Factor Va in a prothrombinase assay as described in Example 5a5). Residual APC activity in the presence of the peptide was calculated from a standard curve.\nThe assay consisted of two parts wherein the APC catalyzed inactivation of Factor Va in the absence or presence of peptides was tested in the first part followed by the indirect determination of remaining Factor Va activity in a prothrombinase assay in the second part.\nThe APC catalyzed inactivation of Factor Va assays were performed in 96-well flat bottom ELISA plates (Stockwell Scientific, Walnut, Calif.). The reactions were performed either in the presence or absence of phospholipid vesicles to determine if peptide-(390-404) inhibited APC anticoagulant activity by inhibiting the binding of APC or its substrate to phospholipids or if it was independent of phospholipid surfaces. […]", "note": "No end group written: not given here."}
{"substance": "YGVYTKVSRYLDWIH-NH2 [peptide-(390-404), YGVYTKVSRYLDWIH]", "values": [{"measurement": "IC50", "setting": "50 μM phospholipid vesicles, 0.25 nM APC, 10.0 nM Va, read-out: half-maximal inhibition of APC-catalyzed inactivation of Factor Va", "result": 4, "unit": "µM"}, {"measurement": "inhibition of APC activity", "setting": "absence of phospholipids, 5 nM APC, 40 nM Va, 50 μM peptide", "result": 94, "unit": "%"}]}
